Reference: patent US8425908B2, “Treatment with anti-ErbB2 antibodies” (Genentech, Inc., priority 1997, dated 2013)

System: ErbB2-overexpressing metastatic breast cancer
Test: Randomized clinical study of chemotherapy with or without HERCEPTIN in patients with metastatic breast cancer
Type: in vivo, human
Text: Eligibility Criteria Patients had to fulfill all of the following criteria to be eligible for study admission: • Metastatic breast cancer • Overexpression of the ErbB2 (HER2) oncogene (2+ to 3+ as determined by immunohistochemistry or fluorescence in situ hybridization (FISH). [Tumor expression of ErbB2 can be determined by immunohistochemical analysis, as previously described (Slamon et al., [1987] and [1989], supra), of a set of thin sections prepared from the patient's paraffin-archived tumor blocks. The primary detecting antibody used is murine 4D5 MAb, which has the same CDRs as the humanized antibody used for the treatment.
Measurable disease was defined as any mass reproducibly measurable in two perpendicular diameters by physical examination, X-ray (plain films), computerized tomography (CT), magnetic resonance imaging (MRI), ultrasound, or photographs.
Osteoblastic metastases, pleural effusions, or ascites were not considered to be measurable. Measurable lesions must be at least 1 cm in greatest dimension. Enumeration of evaluable sites of metastatic disease and number of lesions in an evaluable site (e.g. lung) had to be recorded on the appropriate Case Report Form (CRF). If a large number of pulmonary or hepatic lesions were present, the six largest lesions per site were followed. • The ability to understand and willingness to sign a written informed consent form • Women≧18 years • Suitable candidates for receiving concomitant cytotoxic chemotherapy as evidenced by screening laboratory assessments of hematologic, renal, hepatic, and metabolic functions.
Exclusion Criteria Patients with any of the following were excluded from study entry: • Prior cytotoxic chemotherapy for metastatic breast cancer Patients may have received prior hormonal therapy (e.g. tamoxifen) for metastatic disease or cytotoxic therapy in the adjuvant setting. • Concomitant malignancy that has not been curatively treated • A performance status of <60% on the Karnofsky scale • Pregnant or nursing women; women of childbearing potential, unless using effective contraception as determined by the investigator • Bilateral breast cancer (either both primary tumors must have 2+ to 3+ HER2 overexpression, or the metastatic site must have 2+ to 3+ HER2 overexpression) • Use of investigational or unlicensed agents within 30 days prior to study entry • Clinically unstable or untreated metastases to the brain (e.g. requiring radiation therapy)
Half the patients (stratified by chemotherapy) were randomized to additionally receive the HERCEPTIN® antibody (see below).
Beginning on day 7, patients received weekly administration of 2 mg/kg antibody (i.v.) over a 90-minute period. […]

[1] = median follow-up of 10.5 months

syndrome of myocardial dysfunction, Grade 3/4: 0%
SMILES: CC(=O)O[C@H]1C(=O)[C@@]2(C)[C@H]([C@H](OC(=O)c3ccccc3)[C@]3(O)C[C@H](OC(=O)[C@H](O)[C@@H](NC(=O)c4ccccc4)c4ccccc4)C(C)=C1C3(C)C)[C@]1(OC(C)=O)CO[C@@H]1C[C@@H]2O [T, paclitaxel]
AE (%), overall severe adverse events [1]: 59% | RR (%), response rates [1]: 25.0% | TTP (months), time to disease progression [1]: 4.2 months
